Test results from PubChem BioAssay AID2060498 (Molecular Pharmacology Branch, DTP, NCI, 2025).
Blank lines part the entries; values can stand above or below the compound they belong to.

Test system: 171881-019-R-J1-PDC tumor spheroids, viability
Test: Anticancer human tumor 171881-019-R-J1-PDC patient-derived invasive breast carcinoma cell line growth inhibition [GQUAD]
Settings: spheroids with HUVEC and MSC; for IC50: curve of first compound; for viability, T/C: stronger effect = lower value
Method in brief: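 Tumor cells were grown as complex spheroids with HUVEC endothelial cells and mesenchymal stem cells as stroma. G-quadruplex stabilizers were combined with targeted agents over half-log dilutions from near the clinical Cmax, or from 10 microM.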

[1] = second compound 0.0316 µM, first compound 0.0316 µM
[2] = second compound 0.0316 µM, first compound 0.1 µM
[3] = second compound 0.0316 µM, first compound 0.316 µM
[4] = second compound 0.0316 µM, first compound 1 µM
[5] = second compound 0.0316 µM, first compound 3.16 µM
[6] = second compound 0.0316 µM, first compound 10 µM
[7] = second compound 0.1 µM, first compound 0.0316 µM
[8] = second compound 0.1 µM, first compound 0.1 µM
[9] = second compound 0.1 µM, first compound 0.316 µM
[10] = second compound 0.1 µM, first compound 1 µM
[11] = second compound 0.1 µM, first compound 3.16 µM
[12] = second compound 0.1 µM, first compound 10 µM
[13] = second compound 0.316 µM, first compound 0.0316 µM
[14] = second compound 0.316 µM, first compound 0.1 µM
[15] = second compound 0.316 µM, first compound 0.316 µM
[16] = second compound 0.316 µM, first compound 1 µM
[17] = second compound 0.316 µM, first compound 3.16 µM
[18] = second compound 0.316 µM, first compound 10 µM
[19] = second compound 1 µM, first compound 0.0316 µM
[20] = second compound 1 µM, first compound 0.1 µM
[21] = second compound 1 µM, first compound 0.316 µM
[22] = second compound 1 µM, first compound 1 µM
[23] = second compound 1 µM, first compound 3.16 µM
[24] = second compound 1 µM, first compound 10 µM
[25] = second compound 3.16 µM, first compound 0.0316 µM
[26] = second compound 3.16 µM, first compound 0.1 µM
[27] = second compound 3.16 µM, first compound 0.316 µM
[28] = second compound 3.16 µM, first compound 1 µM
[29] = second compound 3.16 µM, first compound 3.16 µM
[30] = second compound 3.16 µM, first compound 10 µM
[31] = second compound 10 µM, first compound 0.0316 µM
[32] = second compound 10 µM, first compound 0.1 µM
[33] = second compound 10 µM, first compound 0.316 µM
[34] = second compound 10 µM, first compound 1 µM
[35] = second compound 10 µM, first compound 3.16 µM
[36] = second compound 10 µM, first compound 10 µM
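Further: spheroids exposed to compounds for 7 days.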
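Wherever viability, T/C is given: 100% = DMSO vehicle control viability.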

IC50 (second compound 0.0316 µM): 425 nM | IC50 (second compound 0.1 µM): 403 nM | IC50 (second compound 0.316 µM): 405 nM | IC50 (second compound 1 µM): 482 nM | IC50 (second compound 3.16 µM): 286 nM | IC50 (second compound 10 µM): 148 nM
SMILES: C#Cc1c(F)ccc2cc(O)cc(-c3ncc4c(N5CC6CCC(C5)N6)nc(OCC56CCCN5CC(F)C6)nc4c3F)c12 (centres undefined) + Cc1cnc(CNC(=O)c2c(=O)c3ccc(N4CCCN(C)CC4)nc3n3c2sc2ccccc23)cn1
viability, T/C [1]: 96.7% | viability, T/C [2]: 71.8% | viability, T/C [3]: 52.7% | viability, T/C [4]: 42.3% | viability, T/C [5]: 29.4% | viability, T/C [6]: 26% | viability, T/C [7]: 75.7% | viability, T/C [8]: 66% | viability, T/C [9]: 52% | viability, T/C [10]: 41.3% | viability, T/C [11]: 30.1% | viability, T/C [12]: 27.4% | viability, T/C [13]: 68% | viability, T/C [14]: 62.3% | viability, T/C [15]: 51.7% | viability, T/C [16]: 42% | viability, T/C [17]: 37.1% | viability, T/C [18]: 32.3% | viability, T/C [19]: 64.6% | viability, T/C [20]: 56.9% | viability, T/C [21]: 55.6% | viability, T/C [22]: 44.2% | viability, T/C [23]: 41% | viability, T/C [24]: 40.9% | viability, T/C [25]: 60.3% | viability, T/C [26]: 52.5% | viability, T/C [27]: 52.9% | viability, T/C [28]: 44.3% | viability, T/C [29]: 41.5% | viability, T/C [30]: 41.5% | viability, T/C [31]: 52.1% | viability, T/C [32]: 54.5% | viability, T/C [33]: 49.4% | viability, T/C [34]: 41.2% | viability, T/C [35]: 44.8% | viability, T/C [36]: 43.5%

IC50 (second compound 0.0316 µM): < 31.6 nM | IC50 (second compound 0.1 µM): < 31.6 nM | IC50 (second compound 0.316 µM): < 31.6 nM | IC50 (second compound 1 µM): < 31.6 nM | IC50 (second compound 3.16 µM): < 31.6 nM | IC50 (second compound 10 µM): < 31.6 nM
SMILES: CC(=O)O[C@H]1C(=O)[C@@]2(C)[C@H]([C@H](OC(=O)c3ccccc3)[C@]3(O)C[C@H](OC(=O)[C@H](O)[C@@H](NC(=O)c4ccccc4)c4ccccc4)C(C)=C1C3(C)C)[C@]1(OC(C)=O)CO[C@@H]1C[C@@H]2O + Cc1cnc(CNC(=O)c2c(=O)c3ccc(N4CCCN(C)CC4)nc3n3c2sc2ccccc23)cn1
viability, T/C [1]: 37.4% | viability, T/C [2]: 29.4% | viability, T/C [3]: 27.8% | viability, T/C [4]: 26% | viability, T/C [5]: 24.2% | viability, T/C [6]: 26.7% | viability, T/C [7]: 43.9% | viability, T/C [8]: 38% | viability, T/C [9]: 31.3% | viability, T/C [10]: 33.2% | viability, T/C [11]: 31.9% | viability, T/C [12]: 32.9% | viability, T/C [13]: 51.2% | viability, T/C [14]: 44.1% | viability, T/C [15]: 39.5% | viability, T/C [16]: 35% | viability, T/C [17]: 37.1% | viability, T/C [18]: 38.5% | viability, T/C [19]: 51.9% | viability, T/C [20]: 45.4% | viability, T/C [21]: 47% | viability, T/C [22]: 40.1% | viability, T/C [23]: 45% | viability, T/C [24]: 50.5% | viability, T/C [25]: 51.9% | viability, T/C [26]: 46.5% | viability, T/C [27]: 47% | viability, T/C [28]: 44.2% | viability, T/C [29]: 50.8% | viability, T/C [30]: 49.9% | viability, T/C [31]: 46.6% | viability, T/C [32]: 48.4% | viability, T/C [33]: 46% | viability, T/C [34]: 47.6% | viability, T/C [35]: 50.3% | viability, T/C [36]: 51.9%
